Assay results as given in ChEMBL document CHEMBL3232789, “Design and synthesis of novel 2H-chromen-2-one derivatives bearing 1,2,3-triazole moiety as lead antimicrobials” (2014).

How the values were obtained:
[1] = tested on: Aspergillus flavus; assay: Antifungal activity against Aspergillus flavus MTCC 277 assessed as growth inhibition at 100 ug/mL after 30 hrs by cup plate method; assay type: functional; conditions: MTCC 277, 30 h, read-out: DIZ
[2] = tested on: Candida albicans; assay: Antifungal activity against Candida albicans MTCC 227 assessed as growth inhibition at 100 ug/mL after 30 hrs by cup plate method; assay type: functional; conditions: MTCC 227, 30 h, read-out: DIZ
[3] = tested on: Salmonella typhi; assay: Antibacterial activity against Salmonella typhi MTCC 733 assessed as growth inhibition at 100 ug/mL after 14 hrs by cup plate method; assay type: functional, Salmonella enterica subsp. enterica serovar Typhi; conditions: Salmonella enterica, MTCC 733, 14 h; read-out: DIZ
[4] = tested on: Staphylococcus epidermidis; assay: Antibacterial activity against Staphylococcus epidermidis MTCC 435 assessed as growth inhibition at 100 ug/mL after 14 hrs by cup plate method; assay type: functional; conditions: MTCC 435, 14 h, read-out: DIZ
[5] = tested on: Bacillus subtilis; assay: Antibacterial activity against Bacillus subtilis MTCC 441 assessed as growth inhibition at 100 ug/mL after 14 hrs by cup plate method; assay type: functional; conditions: MTCC 441, 14 h, read-out: DIZ
[6] = tested on: Klebsiella pneumoniae; assay: Antibacterial activity against Klebsiella pneumoniae MTCC 432 assessed as growth inhibition at 100 ug/mL after 14 hrs by cup plate method; assay type: functional; conditions: MTCC 432, 14 h, read-out: DIZ
[7] = tested on: Escherichia coli; assay: Antibacterial activity against Escherichia coli MTCC 443 assessed as growth inhibition at 100 ug/mL after 14 hrs by cup plate method; assay type: functional; conditions: MTCC 443, 14 h, read-out: DIZ
[8] = tested on: Aspergillus niger; assay: Antifungal activity against Aspergillus niger MTCC 282 assessed as growth inhibition at 100 ug/mL after 30 hrs by cup plate method; assay type: functional; conditions: MTCC 282, 30 h, read-out: DIZ
[9] = tested on: Aspergillus fumigatus; assay: Antifungal activity against Aspergillus fumigatus MTCC 343 assessed as growth inhibition at 100 ug/mL after 30 hrs by cup plate method; assay type: functional; conditions: MTCC 343, 30 h, read-out: DIZ
[10] = tested on: Staphylococcus aureus; assay: Antibacterial activity against Staphylococcus aureus MTCC 096 assessed as growth inhibition at 100 ug/mL after 14 hrs by cup plate method; assay type: functional; conditions: MTCC 096, 14 h, read-out: DIZ
[11] = tested on: Pseudomonas aeruginosa; assay: Antibacterial activity against Pseudomonas aeruginosa MTCC 424 assessed as growth inhibition at 100 ug/mL after 14 hrs by cup plate method; assay type: functional; conditions: MTCC 424, 14 h, read-out: DIZ

SMILES	zone of inhibition at 100 µg/mL [1] [mm]	zone of inhibition at 100 µg/mL [2] [mm]	zone of inhibition at 100 µg/mL [3] [mm]	zone of inhibition at 100 µg/mL [4] [mm]	zone of inhibition at 100 µg/mL [5] [mm]	zone of inhibition at 100 µg/mL [6] [mm]	zone of inhibition at 100 µg/mL [7] [mm]	zone of inhibition at 100 µg/mL [8] [mm]	zone of inhibition at 100 µg/mL [9] [mm]	zone of inhibition at 100 µg/mL [10] [mm]	zone of inhibition at 100 µg/mL [11] [mm]
CC(=O)N1CCN(Cc2cn(CCCCCCOc3ccc4c(C)cc(=O)oc4c3)nn2)CC1	12.9	14.7	12.1	14.8	12.4	14.4	13.3	12.7	18.2	14.4	17.1
Cc1cc(=O)oc2cc(OCCCCCCn3cc(CN4CCN(Cc5ccc6c(c5)OCO6)CC4)nn3)ccc12	15	16.8	14.1	11.9	12.5	13.9	12.3	11.9	20.6	14	14.9
Cc1cc(=O)oc2cc(OCCCCCCn3cc(CN4CCCCC4)nn3)ccc12	12.5	14	14.4	13.1	12.6	12.9	12.8	11.9	18.8	12.9	13.2
Cc1cc(=O)oc2cc(OCCCCn3cc(CN4C(=O)c5ccccc5C4=O)nn3)ccc12	13.8	16.5	12.2	12.4	12.9	12.4	12.7	12.8	19	12.8	13.9
Cc1cc(=O)oc2cc(OCCCCCCn3cc(CN4C(=O)c5ccccc5C4=O)nn3)ccc12	15.2	14.9	12.4	12.6	12.8	12.9	13.4	13.9	18.5	12.9	12.8
Cc1cc(=O)oc2cc(OCc3cn(CCCCCN4C(=O)c5ccccc5C4=O)nn3)ccc12	14.5	16.9	12.7	12.6	13.6	12.6	12.5	12.3	23.4	12.5	12.9
Cc1cc(=O)oc2cc(OCc3cn(CCCN4C(=O)c5ccccc5C4=O)nn3)ccc12	16.4	18.6	12.3	11.4	12.5	14.4	12.6	13.2	21.3	12.8	13.1
Cc1cc(=O)oc2cc(OCCCCCCn3cc(CN4CCN(C)CC4)nn3)ccc12	14.4	13.6	13.1	14.6	12.4	12.4	14.7	14	18.4	12.5	13.9
Cc1cc(=O)oc2cc(OCCCCCCn3cc(CN4CCCC4)nn3)ccc12	14.7	14.4	15.2	14	14	14.4	11.7	12.5	18.5	13.6	14.8
Cc1cc(=O)oc2cc(OCc3cn(CCN4C(=O)c5ccccc5C4=O)nn3)ccc12	12.5	20.2	11.9	12.4	10.5	13.3	14.5	14.4	19.5	13	13
Cc1cc(=O)oc2cc(OCc3cn(CCCCN4C(=O)c5ccccc5C4=O)nn3)ccc12	14.8	16.6	12.5	12.8	11.6	11.6	12.4	13.5	18.9	12.6	14
Cc1cc(=O)oc2cc(OCCCCCCn3cc(CN4CCOCC4)nn3)ccc12	16.8	13.5	13.5	13.4	15.4	14.6	14.4	12.9	16.9	11.7	14.5
Cc1cc(=O)oc2cc(OCCCCN=[N+]=[N-])ccc12	13.6	19.3	12.9	12.7	11.3	12.5	13	13.1	18.6	13.5	12.8
Cc1cc(=O)oc2cc(OCCCCCCN=[N+]=[N-])ccc12	16.4	18.7	12.4	13.5	12.5	14.5	14.3	13.8	19	15.7	13
